Assay results reported in patent publication US6737055B2, “Isolated cathepsin L type cysteine proteases and reducing intercorneocyte cohesion/promoting desquamation therewith” (Societe l'Oreal S.A., priority 1997, dated 2004).
Where a SMILES comes first, the peptide text is derived from it. [ ]: non-standard residue; d: D form. The star is where a group is joined. Sta = CC(C)C[C@H](N)[C@@H](O)CC(=O)O; Isovaleryl = CC(C)CC(=O)*

Experiments:
[1] = test system: cysteine-dependent protease of the G4 peak; experiment: Protease activity of G4 peak fractions (Enzcheck kit, BODIPYfl-caséine fluorometry) with or without known protease inhibitors, 5 mM cysteine; assay type: biochemical, human
Description: The protease activities contained in the fractions obtained by transporting over the Superdex G75 HR10/30® exclusion column were assayed by fluorometry using the Enzcheck® kit (Molecular Probes).
This kit is a rapid and simple method of measuring the protease activities, with no precipitation or separation phase and is therefore suitable for rapid screening of the protease activities of the different fractions. This protocol employs, as substrate therefor, BODIPYfl-caséine® which becomes fluorescent after enzymatic digestion. The fluorescence thus liberated is directly proportional to the protease activity contained in the sample. The fluorescence was measured on the LS50B spectrofluorometer, Perkin Elmer, with an excitation wavelength of 485 nm (slit of 2.5 nm), an emission wavelength of 535 nm (slit of 8 nm) and an integration time of 1 second per well.
The assays were carried out in the presence or absence of cysteine at a final concentration of 5 mM so as to detect possible cysteine protease activities.
In order to better characterize the cysteine-dependent protease isolated above, tests of inhibition by known protease inhibitors were carried out. The measurements were carried out in an identical manner to the preceding measurements in the presence of cysteine at a final concentration of 5 mM and in the presence or absence (control) of the inhibitor considered.

[2] = target: L cathepsins (Homo sapiens, UniProt P07711); settings: cited from earlier work
Sequence of L cathepsins (P07711 114-333): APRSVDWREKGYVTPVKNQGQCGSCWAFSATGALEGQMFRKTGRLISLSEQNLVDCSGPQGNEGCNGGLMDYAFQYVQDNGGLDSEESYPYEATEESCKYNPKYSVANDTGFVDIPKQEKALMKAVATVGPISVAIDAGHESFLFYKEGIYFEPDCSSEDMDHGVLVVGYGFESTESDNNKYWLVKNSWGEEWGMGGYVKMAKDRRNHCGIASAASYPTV

[3] = test system: cathepsins L; settings: in the presence of urea; cited from earlier work
[4] = test system: cathepsins D; settings: in the presence of urea; cited from earlier work

CC(C)CC(=O)N[C@H](C(=O)N[C@H](C(=O)N[C@@H](CC(C)C)[C@@H](O)CC(=O)N[C@@H](C)C(=O)N[C@@H](CC(C)C)[C@@H](O)CC(=O)O)C(C)C)C(C)C [Pepstatin] (Isovaleryl-VV[Sta]A[Sta]-OH)
action on G4 protease activity ([1]; pepstatin at 1 μM, 5 mM cysteine): without action

CC(C)C[C@H](NC(=O)[C@H]1O[C@@H]1C(=O)O)C(=O)NCCCCN=C(N)N [E 64]
inhibition of the activity of the cysteine-dependent protease of the G4 peak ([1]; E 64 at 1.4 μM, 5 mM cysteine, acetate buffer pH 5.0): about 71%

Z(phe-arg 2R110)
sensitivity to the action of the L cathepsins relative to the B cathepsins [2]: 850 times

CCCNC(=O)[C@H]1O[C@@H]1C(=O)N[C@H](C(=O)N1CCC[C@H]1C(=O)O)[C@@H](C)CC [Inhibitor CA 074, CA 074]
effect on the activity profile of the cysteine-dependent protease of peak G4 ([1]; 1 μM, 5 mM cysteine): practically, did not affect the activity profile

CC(=O)N[C@@H](CC(C)C)C(=O)N[C@@H](CC(C)C)C(=O)N[C@H](C=O)CCCNC(=N)N [Leupeptin]
reduction of the protease activity of G4 ([1]; leupeptin at 1 μM, in the presence of cysteine): about 41%

CC(C)C[C@H](NC(=O)[C@@H](NC(=O)N[C@@H](Cc1ccccc1)C(=O)O)[C@@H]1CCN=C(N)N1)C(=O)N[C@H](C=O)Cc1ccccc1 [chymostatin, Chymostatin]
inhibition of the cysteine-dependent protease of peak G4 ([1]; chymostatin at 2.5 μM, 5 mM cysteine): more than 50%

NC(N)=O [urea, Urea]
factor by which cathepsin L activity is multiplied [3]: 2.5 | factor by which cathepsin D activity is multiplied [4]: 6
